Read-outs that look alike come from different tables or passages of the source.
Legend:
[1] = DPPH radical scavenging activity; type: biochemical; settings: for EC50: isolated components, read-out: SC50 DPPH
Protocol: This assay was performed using a previously reported procedure. This experiment needs to be performed in the dark. Briefly, 100 µL of varying concentrations of extracts or compounds were mixed with 100 µL of 200 µM DPPH solution and incubated at room temperature for 30 min, and the absorbance was measured at 520 nm. DPPH radical scavenging activity was calculated using the following equation.
DPPH scavenging activity (%) = (A0 − A1)/A0 × 100, where A1 is the absorbance of the test sample, and A0 is the absorbance of the control (untreated group).

[2] = ABTS radical scavenging activity; type: biochemical; settings: for EC50: isolated components, read-out: SC50 ABTS
Protocol: This assay was performed using a previously reported procedure. This experiment needs to be performed in the dark. First, the reaction reagent was prepared by mixing 28 mM ABTS solution and 9.6 mM potassium persulfate solution (v/v, 1/1) and left in the dark at 4 °C for 16 h before use. The reaction reagent was diluted with ethanol until the absorbance was 0.70 ± 0.02 at 740 nm. Next, 10 μL of the extract or compound was mixed with 190 μL of the reaction reagent and incubated at room temperature for 5 min before measuring the absorbance at 740 nm. The formula of scavenging activity was calculated as follows.
ABTS radical scavenging activity (%) = (A0 − A1)/A0 × 100, where A0 and A1 are the absorbance of the control (untreated group) and test sample, respectively.

[3] = Ferric reducing antioxidant power (FRAP); type: biochemical
Protocol: The FRAP assay was performed using a previously described procedure. This experiment needs to be performed in the dark. First, the reaction reagent was obtained by mixing acetate buffer (pH 3.6), ferric chloride solution (20 mM), and TPTZ solution (10 mM TPTZ in 40 mM HCl) in a ratio of 10:1:1, respectively. Next, 900 μL of the reaction reagent was mixed with 100 μL of the sample or Trolox in an Eppendorf tube, and the absorbance was measured at 593 nm after 40 min in a dry bath at 37 °C. The FRAP of the extracts was determined by a linear standard calibration curve from 0 to 100 mM Trolox with an R^2 value of 0.9999.

[4] = Superoxide radical scavenging activity; type: biochemical; settings: isolated components; read-out: SC50 Superoxide
Protocol: This assay was performed using a previously reported procedure. This experiment needs to be performed in the dark. Initially, NBT (300 μM), NADH (468 μM), and PMS (120 μM) were prepared using Tris-HCl buffer (16 mM, pH 8.0). Next, 50 μL of NBT and PMS and 10 μL of the extract or compound were mixed; subsequently, 50 μL of NADH solution was added and incubated at room temperature for 5 min before measuring the absorbance at 560 nm. The equation for the scavenging activity is as follows.
Superoxide radical scavenging activity = (A0 − A1)/A0 × 100, where A0 and A1 are the absorbance of the control (untreated group) and test sample, respectively.

α-glucosidase = target: T1, α-glucosidase (Saccharomyces cerevisiae, UniProt P53341); test: biochemical; type: biochemical
T1 construct: purchased Sigma-Aldrich

tyrosinase = target: T2, tyrosinase (Agaricus bisporus, UniProt C7FF04); test: Tyrosinase inhibitory activity assay; type: biochemical
T2 construct: purchased Sigma-Aldrich

[5] = tested on: nitric oxide (NO) production in RAW 264.7 cells; test: Nitric oxide inhibitory assay (Griess) in LPS-induced RAW264.7 cells; type: cell-based, Murine; settings: Mus musculus, LPS (100 ng/mL)-induced RAW 264.7 cells, read-out: NO Inhibition IC50
Protocol: (§1) Murine RAW264.7 macrophages were cultured at 37 °C under 5% CO2 using a culture medium that was a mixture of DMEM, 10% FBS, and 1% penicillin [29]. When the cells reached […] full growth, the seeded cells were subjected to NO measurement and iNOS protein assay.
The NO inhibition assay was performed as described in [29], with slight modification. RAW264.7 cells were seeded in 96 wells for 24 h. The next day, they were divided into the following groups: medium, medium with LPS (100 ng/mL) added, medium with the positive control (quercetin) and LPS added, and medium with samples and LPS (100 ng/mL) added. The reaction time between the medium and the sample was 1 h before adding LPS and waiting 20 h after adding LPS. Finally, half of the supernatant was transferred into a new 96-well plate and mixed in a 1:1 ratio with Griess reagent. After 15 min in the dark, the reaction was measured at 550 nm.

[6] = tested on: inducible nitric oxide synthase (iNOS); test: Western blot analysis of iNOS expression; type: cell-based, Murine; settings: LPS (100 ng/mL)-induced cells, 24 h; compared to the LPS-induced group; Figure 4
Protocol: as §1
Western blot analysis was performed according to the reference method, with slight modifications. Cells were cotreated with varying concentrations of samples and LPS (100 ng/mL) for 24 h. After washing the cells with ice-cold PBS, the proteins were collected with cell lysis buffer and stored at −20 °C for subsequent experiments. The quantified proteins were separated using a 10% SDS-polyacrylamide gel. Next, the proteins were transferred to polyvinylidene fluoride (PVDF) membranes by electrophoresis. The transferred PVDF membranes were immersed in 2% BSA blocking buffer for 2 h and washed two to three times with TBST. Proteins were visualized by specific primary antibodies and soaked overnight. The next day, PVDF membranes were subjected to the TBST wash step again to remove residual primary antibodies and soaked with secondary antibodies for 2 h. Finally, after repeating the TBST wash two to three times, immunoreactivity was detected with ECL reagents, and samples were exposed with a cold light meter and quantified with Image J.

RAW 264.7 cells = test: MTT assay, cell viability; type: cell-based, Murine
Protocol: as §1
The MTT assay was performed according to the reference method, with slight modifications. Cells from the 96-well plates prepared for the NO inhibition assay were added to MTT stock solution (5 mg/mL) and diluted 20-fold with medium. After 2 h, all liquid was removed, and DMSO was added. The absorbance was measured at 570 nm.

[7] = solvent extracts, 50% free radical scavenging
[8] = isolated components, mM Trolox equivalents per gram
[9] = isolated compounds, read-out: IC50 α-Glucosidase

T1 sequence (P53341 whole entry): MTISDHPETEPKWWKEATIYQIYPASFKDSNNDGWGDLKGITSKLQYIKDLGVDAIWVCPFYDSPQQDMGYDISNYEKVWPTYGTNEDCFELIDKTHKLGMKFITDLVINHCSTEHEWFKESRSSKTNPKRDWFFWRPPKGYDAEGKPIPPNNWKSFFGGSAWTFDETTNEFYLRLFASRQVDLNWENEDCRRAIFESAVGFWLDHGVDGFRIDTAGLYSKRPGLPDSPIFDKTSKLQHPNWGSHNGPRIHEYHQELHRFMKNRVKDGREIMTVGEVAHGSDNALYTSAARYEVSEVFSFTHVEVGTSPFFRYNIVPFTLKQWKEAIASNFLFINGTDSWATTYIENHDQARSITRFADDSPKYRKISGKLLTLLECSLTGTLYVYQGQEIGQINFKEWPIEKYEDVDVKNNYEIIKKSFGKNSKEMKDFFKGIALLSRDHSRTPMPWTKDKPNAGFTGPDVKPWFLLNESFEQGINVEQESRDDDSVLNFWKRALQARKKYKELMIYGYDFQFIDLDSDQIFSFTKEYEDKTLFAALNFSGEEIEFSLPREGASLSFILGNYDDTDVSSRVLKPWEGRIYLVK
T2 sequence (C7FF04 1-392 limits assumed): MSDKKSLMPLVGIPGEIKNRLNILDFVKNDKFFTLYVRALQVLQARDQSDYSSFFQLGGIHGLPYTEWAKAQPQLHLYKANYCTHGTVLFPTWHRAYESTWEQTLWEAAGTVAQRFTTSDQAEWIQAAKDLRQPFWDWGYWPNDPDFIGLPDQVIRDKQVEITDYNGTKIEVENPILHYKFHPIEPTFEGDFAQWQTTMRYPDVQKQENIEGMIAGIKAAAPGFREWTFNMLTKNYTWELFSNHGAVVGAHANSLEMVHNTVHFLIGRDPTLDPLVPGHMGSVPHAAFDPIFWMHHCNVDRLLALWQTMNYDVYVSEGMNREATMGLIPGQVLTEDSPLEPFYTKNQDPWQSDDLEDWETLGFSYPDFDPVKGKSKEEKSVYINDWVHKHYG

For `Cc1cc(C(C)(C)C)c(O)c(C(C)(C)C)c1` [BHT, butylated hydroxytoluene, reference compound], the EC50 [1] was 89.8 ± 7.03 µM, the “SC50 DPPH” value [1, 7] was 19.75 ± 1.79 µg/mL and the EC50 [2] was 116 ± 25.1 µM. The “SC50 ABTS” value [2, 7] was 25.87 ± 5.83 µg/mL, the “TE FRAP” value [3, 8] was 4385.56 ± 78.88 mM/g and the “TE FRAP” value ([3]; solvent extracts, mM Trolox equivalents per gram of extract) was 4385.56 ± 45.54 mM/g.
`CC(C)=CCc1c(-c2ccc(O)cc2O)oc2c([C@H]3C=C(C)C[C@@H](c4ccc(O)cc4O)[C@@H]3C(=O)c3ccc(O)cc3O)c(O)cc(O)c2c1=O` [Kuwanon G (5), kuwanon G] gave an EC50 [1] greater than 200 µM, an EC50 [2] of 9.28 ± 1.02 µM and an EC50 [4] of 188 ± 19.1 µM. For the same compound, the “TE FRAP” value [3, 8] was 3549.22 ± 160.65 mM/g, the “TE FRAP” value ([3]; isolated components, mM Trolox equivalents per gram, listed as 5) was 3549.22 ± 160.65 mM/g and the IC50 (α-glucosidase) was 7 ± 0.31 µM. It also gave an IC50 (tyrosinase) of 100 ± 9.62 µM and an IC50 ([5]; isolated components) of 17.8 ± 0.5 µM.
Work on `CC(C)=CCc1c(O)ccc(C(=O)[C@@H]2[C@@H](c3c(O)cc(O)c4c(=O)c(CC=C(C)C)c(-c5ccc(O)cc5O)oc34)C=C(C)C[C@H]2c2ccc(O)cc2O)c1O` [Kuwanon H (6), kuwanon H] yielded an EC50 [1] greater than 200 µM, an EC50 [2] of 8.68 ± 0.93 µM and an EC50 [4] greater than 200 µM. For the same compound, the “TE FRAP” value [3, 8] was 1750.96 ± 36.30 mM/g, the IC50 (α-glucosidase; [9]) was 4.06 ± 0.12 µM and the “α-glucosidase inhibition, times more effective than acarbose” value (α-glucosidase; versus positive control acarbose) was “approximately 100 times”. The “α-glucosidase inhibition, times more potent than other compounds” value (α-glucosidase; versus the other isolated compounds) was 2–20 times, the IC50 (tyrosinase) was 218 ± 41 µM and the IC50 ([5]; isolated components) was 40.5 ± 4.38 µM.
In the case of `O=c1c(O)c(-c2ccc(O)cc2O)oc2cc(O)cc(O)c12` [Morin (1), morin], the EC50 [1] is reported as 17.5 ± 3.43 µM, the EC50 [2] is reported as 12.7 ± 5.98 µM and the EC50 [4] is reported as 54.5 ± 19 µM. The “TE FRAP” value [3, 8] was 2963.28 ± 63.65 mM/g, the “TE FRAP” value ([3]; isolated components, mM Trolox equivalents per gram, listed as 1) was 2963.28 ± 63.65 mM/g and the IC50 (α-glucosidase) was 90.1 ± 10.2 µM. It also gave an IC50 (tyrosinase) of 199 ± 84.4 µM and an IC50 ([5]; isolated components) of 43.3 ± 4.61 µM.
`CC(C)=CCc1c(-c2ccc(O)cc2O)oc2c3c(cc(O)c2c1=O)OC(C)(C)C=C3` [Morusin (2), morusin] showed an EC50 [1] greater than 200 µM, an EC50 [2] of 44.2 ± 8.07 µM and an EC50 [4] greater than 200 µM. The “TE FRAP” value [3, 8] was 583.43 ± 25.79 mM/g, the IC50 (α-glucosidase; [9]) was 15.7 ± 2.15 µM and the IC50 (tyrosinase) was greater than 400 µM. For the same compound, the IC50 ([5]; isolated components) was 9.87 ± 0.59 µM and the “iNOS expression (Western blot)” value [6] was “significantly reducing the expression of iNOS”.
For `Oc1cc(O)cc(/C=C/c2ccc(O)cc2O)c1` [Oxyresveratrol (3), oxyresveratrol], the EC50 [1] was 44.4 ± 12.5 µM, the EC50 [2] was 9.5 ± 2.08 µM and the EC50 [4] was greater than 200 µM. For the same compound, the “TE FRAP” value [3, 8] was 2402.22 ± 32.91 mM/g, the “TE FRAP” value ([3]; isolated components, mM Trolox equivalents per gram, listed as 3) was 2402.22 ± 32.91 mM/g and the IC50 (α-glucosidase) was 8.35 ± 0.46 µM. For the same compound, the IC50 (tyrosinase) was 1.89 ± 0.59 µM and the IC50 ([5]; isolated components) was 25.4 ± 3.47 µM.
For `O=c1c(O)c(-c2ccc(O)c(O)c2)oc2cc(O)cc(O)c12` [Quercetin, quercetin, reference compound], the IC50 ([5]; isolated components) was 13.2 ± 2 µM, the IC50 ([5]; solvent extracts) was 3.98 ± 0.28 µg/mL and the “cell viability (MTT)” value (RAW 264.7 cells; isolated compounds, Figure 3, except for the high dose of 100 μM) was “slight cytotoxicity at higher doses”. The “cell viability (MTT)” value (RAW 264.7 cells; solvent extracts, Figure 1) was “slight cytotoxicity at higher doses”.
Compound `O=c1ccc2ccc(O)cc2o1` [Umbelliferone (4), umbelliferone] has an EC50 [1] greater than 200 µM, an EC50 [2] greater than 200 µM and an EC50 [4] greater than 200 µM. The “TE FRAP” value [3, 8] was 145.23 ± 35.46 mM/g, the IC50 (α-glucosidase; [9]) was 492 ± 12.8 µM and the IC50 (tyrosinase; isolated compounds, read-out: IC50 Tyrosinase) was greater than 400 µM. The IC50 ([5]; isolated components) was 36.8 ± 2.26 µM.
